Patent US10752584B2 (EMORY UNIVERSITY, priority 2016, dated 2020)
Read-outs that look alike come from different tables or passages of the source.

Tests used:
Assay type in all cases: cell-based
[1] = Cellular toxicity assay in CEM cells; conditions: human, read-out: Cytotoxicity
Experimental: (§1) The toxicity of the compounds was assessed in Vero, human PBM, CEM (human lymphoblastoid), MT-2, and HepG2 cells, as described previously (see Schinazi R. F., Sommadossi J.-P., Saalmann V., Cannon D. L., Xie M.-Y., Hart G. C., Smith G. A. & Hahn E. F. Antimicrob. Agents Chemother. 1990, 34, 1061-67). Cycloheximide was included as positive cytotoxic control, and untreated cells exposed to solvent were included as negative controls. The cytotoxicity IC50 was obtained from the concentration-response curve using the median effective method described previously (see Chou T.-C. & Talalay P. Adv. Enzyme Regul. 1984, 22, 27-55; Belen'kii M. S. & Schinazi R. F. Antiviral Res. 1994, 25, 1-11).

wild type HBV = assay: Anti-HBV assay in AD-38 cell line; conditions: Hepatitis B virus; for EC50: read-out: Anti-HBV activity EC50; for EC90: read-out: Anti-HBV activity EC90
Experimental: The anti-HBV activity of the compounds was determined by treating the AD-38 cell line carrying wild type HBV under the control of tetracycline (see Ladner S. K., Otto M. J., Barker C. S., Zaifert K., Wang G. H., Guo J. T., Seeger C. & King R. W. Antimicrob. Agents Chemother. 1997, 41, 1715-20). Removal of tetracycline from the medium [Tet (−)] results in the production of HBV. The levels of HBV in the culture supernatant fluids from cells treated with the compounds were compared with that of the untreated controls. Control cultures with tetracycline [Tet (+)] were also maintained to determine the basal levels of HBV expression. 3TC was included as positive control.
The median effective concentrations (EC50) ranges of several of the compounds described herein against HBV are shown in Table 3: […]

[2] = Cellular toxicity assay in HepG2 cells; conditions: human, read-out: Cytotoxicity
Experimental: as §1

[3] = Cellular toxicity assay in Vero cells; conditions: African green monkey, read-out: Cytotoxicity
Experimental: as §1

[4] = Cellular toxicity assay in human PBM cells; conditions: human, read-out: Cytotoxicity
Experimental: as §1

[5] = AD-38 cells, HBV in culture supernatant

Compound | CC50 ([1]; CEM lymphoblastoid cells) [µM] | EC50 (wild type HBV; [5]) [µM] | EC90 (wild type HBV; [5]) [µM] | CC50 [2] [µM] | CC50 [3] [µM] | CC50 ([4]; human PBM cells) [µM] | CC50 [1] [µM] | EC50 (wild type HBV) [µM] | EC90 (wild type HBV) [µM] | CC50 [4] [µM]
Cc1c(C(=O)C(=O)Nc2nc3ccccc3[nH]2)c(C)n(C)c1C(=O)Nc1ccc(F)c(F)c1 [Compound 46, 4-(2-((1H-benzo[d]imidazol-2-yl)amino)-2-oxoacetyl)-N-(3,4-difluorophenyl)-1,3,5-trimethyl-1H-pyrrole-2-carboxamide] | 38 | 0.1 to 0.9 | 1 to 9 | 7 | 10 | > 100 |  |  |  | 
Cc1c(C(=O)C(=O)Nc2ccccn2)c(C)n(C)c1C(=O)Nc1ccc(F)c(F)c1 [Compound 43, N-(3,4-difluorophenyl)-1,3,5-trimethyl-4-(2-oxo-2-(pyridin-2-ylamino)acetyl)-1H-pyrrole-2-carboxamide] | 50 | 0.01 to 0.09 | 0.1 to 0.9 | > 100 | > 100 | > 100 |  |  |  | 
C#CCNC(=O)C(=O)c1c(C)c(C(=O)Nc2ccc(F)c(Cl)c2)n(C)c1C [Compound 66, N-(3-chloro-4-fluorophenyl)-1,3,5-trimethyl-4-(2-oxo-2-(prop-2-yn-1-ylamino)acetyl)-1H-pyrrole-2-carboxamide] | 52 | 0.001 to 0.009 | 0.01 to 0.09 | 83 | 70 | > 100 |  |  |  | 
C#CCNC(=O)C(=O)c1c(C)c(C(=O)Nc2ccc(F)c(C#N)c2)n(C)c1C [Compound 7b, N-(3-cyano-4-fluorophenyl)-1,3,5-trimethyl-4-(2-oxo-2-(prop-2-yn-1-ylamino)acetyl)-1H-pyrrole-2-carboxamide] | > 100 | 0.01 to 0.09 | 0.1 to 0.9 | > 100 | > 100 | > 100 |  |  |  | 
Cn1cc(C(=O)C(=O)Nc2nccs2)cc1C(=O)Nc1ccc(F)c(F)c1 [Compound 26, N-(3,4-difluorophenyl)-1-methyl-4-(2-oxo-2-(thiazol-2-ylamino)acetyl)-1H-pyrrole-2-carboxamide] | > 100 | 0.1 to 0.9 | 1 to 9 | > 100 | 31.2 | > 100 |  |  |  | 
C#CCNC(=O)C(=O)c1c(C)c(C(=O)Nc2ccc(F)c(C)c2)n(C)c1C [Compound 64, N-(4-fluoro-3-methylphenyl)-1,3,5-trimethyl-4-(2-oxo-2-(prop-2-yn-1-ylamino)acetyl)-1H-pyrrole-2-carboxamide] | 18 | 0.0001 to 0.0009 | 0.001 to 0.009 | > 100 | 96 | > 100 |  |  |  | 
C=CCn1cc(CNC(=O)C(=O)c2c(C)c(C(=O)Nc3ccc(F)c(F)c3)n(C)c2C)nn1 [Compound 8] |  |  |  | 98.6 | > 100 |  | 45.4 | 0.001 to 0.009 | 0.01 to 0.09 | 60.5
C#CCNC(=O)C(=O)c1c(C)c(C(=O)NC2(c3ccc(F)c(F)c3)CC2)n(C)c1C [Compound 57, N-(1-(3,4-difluorophenyl)cyclopropyl)-1,3,5-trimethyl-4-(2-oxo-2-(prop-2-yn-1-ylamino)acetyl)-1H-pyrrole-2-carboxamide] | > 100 | 1 to 9 |  | > 100 | > 100 | > 100 |  |  |  | 
C#CCNC(=O)C(=O)c1c(C)c(C(=O)Nc2ccccc2)n(C)c1C [Compound 58, 1,3,5-trimethyl-4-(2-oxo-2-(prop-2-yn-1-ylamino)acetyl)-N-phenyl-1H-pyrrole-2-carboxamide] | > 100 | 0.01 to 0.09 | 0.1 to 0.9 | > 100 | > 100 | > 100 |  |  |  | 
C=CCNC(=O)C(=O)c1cc(C(=O)Nc2ccc(F)c(F)c2)n(C)c1 [Compound 25, 4-(2-(allylamino)-2-oxoacetyl)-N-(3,4-difluorophenyl)-1-methyl-1H-pyrrole-2-carboxamide] | > 100 | 0.01 to 0.09 | 1 to 9 | > 100 | 68.1 | > 100 |  |  |  | 
Cc1c(C(=O)C(=O)N2CCOCC2)c(C)n(C)c1C(=O)Nc1ccc(F)c(F)c1 [Compound 72, N-(3,4-difluorophenyl)-1,3,5-trimethyl-4-(2-morpholino-2-oxoacetyl)-1H-pyrrole-2-carboxamide] | 14 | 0.1 to 0.9 | 0.1 to 0.9 | 100 | 51 | 30 |  |  |  | 
Cn1cc(NS(=O)(=O)c2ccccc2)cc1C(=O)Nc1ccc(F)c(F)c1 [Compound 36, N-(3,4-difluorophenyl)-1-methyl-4-(phenylsulfonamido)-1H-pyrrole-2-carboxamide] | 36.7 | 0.1 to 0.9 | 1 to 9 | 43.5 | 22.9 | 13.9 |  |  |  | 
C#CCNC(=O)C(=O)c1c(C)c(C(=O)Nc2ccc(F)nc2)n(C)c1C [Compound 61, N-(6-fluoropyridin-3-yl)-1,3,5-trimethyl-4-(2-oxo-2-(prop-2-yn-1-ylamino)acetyl)-1H-pyrrole-2-carboxamide] | > 100 | 0.1 to 0.9 | 0.1 to 0.9 | > 100 | > 100 | > 100 |  |  |  | 
Cc1c(C(=O)C(=O)NCC#Cc2nccn2C)c(C)n(C)c1C(=O)Nc1ccc(F)c(F)c1 [Compound 83, N-(3,4-difluorophenyl)-1,3,5-trimethyl-4-(2-((3-(1-methyl-1H-imidazol-2-yl)prop-2-yn-1-yl)amino)-2-oxoacetyl)-1H-pyrrole-2-carboxamide] | 4 | 1 to 9 |  | 42 | 7 | 7 |  |  |  | 
C#CCNC(=O)C(=O)c1c(C)c(C(=O)Nc2ccc(S(F)(F)(F)(F)F)cc2)n(C)c1C [Compound 59, 1,3,5-trimethyl-4-(2-oxo-2-(prop-2-yn-1-ylamino)acetyl)-N-(4-(pentafluorosulfanyl)phenyl)-1H-pyrrole-2-carboxamide] | 3 | 1 to 9 |  | 43 | 12 | 44 |  |  |  | 
Cc1c(C(=O)C(=O)NCC#N)c(C)n(C)c1C(=O)Nc1ccc(F)c(F)c1 [Compound 81, 4-(2-((cyanomethyl)amino)-2-oxoacetyl)-N-(3,4-difluorophenyl)-1,3,5-trimethyl-1H-pyrrole-2-carboxamide] | 33 | 0.001 to 0.009 | 0.1 to 0.9 | 71 | > 100 | 30 |  |  |  | 
Cn1cc(C(=O)C(=O)N2CCOCC2)cc1C(=O)Nc1ccc(F)c(F)c1 [Compound 31, N-(3,4-difluorophenyl)-1-methyl-4-(2-morpholino-2-oxoacetyl)-1H-pyrrole-2-carboxamide] | > 100 | 0.01 to 0.09 | 1 to 9 | 93.9 | 41.9 | > 100 |  |  |  | 
C=CCNC(=O)C(=O)c1c(C)c(C(=O)Nc2ccc(F)c(F)c2)n(C)c1C [Compound 75, 4-(2-(allylamino)-2-oxoacetyl)-N-(3,4-difluorophenyl)-1,3,5-trimethyl-1H-pyrrole-2-carboxamide] | 66 | 0.001 to 0.009 | 0.01 to 0.09 | > 100 | 33 | > 100 |  |  |  | 
Cn1cc(C(=O)C(=O)N2CC(F)(F)C2)cc1C(=O)Nc1ccc(F)c(F)c1 [Compound 32, 4-(2-(3,3-difluoroazetidin-1-yl)-2-oxoacetyl)-N-(3,4-difluorophenyl)-1-methyl-1H-pyrrole-2-carboxamide] | > 100 | 1 to 9 | 1 to 9 | > 100 | > 100 | > 100 |  |  |  | 
C#CCNC(=O)C(=O)c1c(C)c(C(=O)Nc2cncnc2)n(C)c1C [Compound 62, 1,3,5-trimethyl-4-(2-oxo-2-(prop-2-yn-1-ylamino)acetyl)-N-(pyrimidin-5-yl)-1H-pyrrole-2-carboxamide] | > 100 | 1 to 9 | 1 to 9 | > 100 | > 100 | > 100 |  |  |  | 
Cc1c(C(=O)C(=O)NCc2nccn2C)c(C)n(C)c1C(=O)Nc1ccc(F)c(F)c1 [Compound 48, N-(3,4-difluorophenyl)-1,3,5-trimethyl-4-(2-(((1-methyl-1H-imidazol-2-yl)methyl)amino)-2-oxoacetyl)-1H-pyrrole-2-carboxamide] | 27 | 0.001 to 0.009 | 0.01 to 0.09 | 84 | > 100 | > 100 |  |  |  | 
C#CCNC(=O)C(=O)c1c(C)c(C(=O)NC(C)(C)c2ccc(F)c(F)c2)n(C)c1C [Compound 56, N-(2-(3,4-difluorophenyl)propan-2-yl)-1,3,5-trimethyl-4-(2-oxo-2-(prop-2-yn-1-ylamino)acetyl)-1H-pyrrole-2-carboxamide] | > 100 | 1 to 9 |  | > 100 | > 100 | > 100 |  |  |  | 
